Tests used:
HiBiT-tagged MDM2 = molecular target: T1, HiBiT-tagged MDM2 (Homo sapiens, UniProt Q00987); test: MDM2 HiBit HEK293T degradation; assay type: cell-based; details: HEK293T cells stably expressing C-terminally HiBiT-tagged MDM2; 4 h; read-out: MDM2 HiBit HEK293T degradation 4 h: Average external-Abs DC50
T1 construct: expressed in transfected cells
Experimental: HEK293T cells were grown overnight to 70-80% confluency in a 6-well plate in complete media (DMEM 10% FBS) in a 37° C. incubator with 5% CO2. Cells were transfected with 1 micrograms of C- or N-terminally HiBiT-tagged MDM2 constructs using Fugene 6 transfection reagent (Promega) as per manufacturer protocol. After overnight incubation at 37° C., growth media within the wells was replaced with selection media (DMEM+10% FBS+1 microgram/ml final concentration of Puromycin). Puromycin (selection antibiotic) concentrations required for complete cell kill were determined previously. Cells were monitored for the next 48h-96h to select for positively transfected cells. Surviving colonies were pooled and expanded in selection media. Expanded pools of HEK293T cells stably expressing C- and N-terminally HiBiT-tagged MDM2, were characterized using a MDM2 tool degrader and HaloPROTAC3 as positive control. HEK293T cells expressing C-terminally HiBiT-tagged MDM2 were subsequently used for assessment of degradation potencies for MDM2 degraders.
The letter codes for MDM2 degradation potency (DC50) include: A (<10 nM), B […], C (>100-1000 nM), and D (>1000 nM).

RS411 cells = test: Cell Viability CTG Assay; assay type: cell-based; details: Homo sapiens, RS4-11, CellTiter Glo (CTG) cell viability, read-out: Average external-IC50
Experimental: Compounds or DMSO 60 nL were stamped to the cell plate as the platemap. RS411 cells were centrifuged at 800 rpm for 5 min, suspended with culture medium, and counted with Countess (Invitrogen). The cell density was adjusted to the recommend information. 30 μL of cell solution (1000 cells/well) was added to the assay plate as the platemap and 30 μL of media was added to column 2 and column 23 as the platemap. The plate was spun down briefly. The final concentration of the compounds started at 10 μM (3 fold dilution and 11 doses) and final DMSO concentration was 0.2%. The plate was spun down briefly and incubated at 37° C., 5% CO2 for 1 day. […] 30 μL CellTiter Glo reagent was added to each well and the plate was centrifuged at 1000 rpm for 30 sec. The plate was shaken for 1 min and centrifuged at 1000 rpm for 30 sec. The plate was incubated at RT for 10 min to stabilize the luminescent signal and the luminescence was read by EnVision.
The letter codes for IC50 indicate the concentration of compound required to affect 50% of cells: A (<0.005 μM), B (0.005-0.05 μM), C (0.05-0.5 μM), and D (>0.5 μM).

T1 sequence (Q00987 whole entry): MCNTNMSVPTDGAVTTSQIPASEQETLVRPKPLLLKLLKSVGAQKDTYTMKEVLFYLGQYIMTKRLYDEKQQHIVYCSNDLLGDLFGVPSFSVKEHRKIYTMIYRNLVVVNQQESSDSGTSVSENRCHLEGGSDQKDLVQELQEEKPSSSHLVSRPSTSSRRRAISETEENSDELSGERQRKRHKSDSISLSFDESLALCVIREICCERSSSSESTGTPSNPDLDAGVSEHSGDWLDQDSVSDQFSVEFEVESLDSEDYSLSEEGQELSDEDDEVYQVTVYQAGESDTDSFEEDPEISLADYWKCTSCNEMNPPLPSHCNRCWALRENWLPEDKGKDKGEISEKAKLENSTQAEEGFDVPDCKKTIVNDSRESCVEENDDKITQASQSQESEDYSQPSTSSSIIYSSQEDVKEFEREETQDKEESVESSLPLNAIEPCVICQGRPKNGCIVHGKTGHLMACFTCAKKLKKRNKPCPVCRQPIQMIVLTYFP

Row | DC50 (HiBiT-tagged MDM2) [nM] | IC50 (RS411 cells) [nM] | SMILES
1 | 10 to 100 | < 5 | COc1cc2c(cc1OC(C)C)[C@H](c1ccc(Cl)cc1)N(c1ccc(N(C)C[C@H]3CC[C@H](N(CCS(C)(=O)=O)C(=O)CCCCc4ccc5c(c4)n(C)c(=O)n5C4CCC(=O)NC4=O)CC3)cc1)C(=O)C2 (stereo partly shown) [I-6]
2 | < 10 | 5 to 50 | COc1cc2c(cc1OC(C)C)[C@H](c1ccc(Cl)cc1)N(c1ccc(N(C)C[C@H]3CC[C@H](c4ccc5c(c4)n(C)c(=O)n5C4CCC(=O)NC4=O)CC3)cc1)C(=O)C2 (stereo partly shown) [I-74]
3 | – | 5 to 50 | CN1C(=O)CCC(n2c(=O)n(C)c3cc(C4CCN(C[C@H]5CC[C@H](NC(=O)[C@@H]6NC7(CCCCC7)[C@@]7(C(=O)Nc8cc(Cl)ccc87)[C@H]6c6cccc(Cl)c6F)CC5)CC4)ccc32)C1=O (stereo partly shown) [I-101]
4 | – | < 5 | COC(=O)C1(c2ccc3c(c2)n(C)c(=O)n3C2CCC(=O)NC2=O)CCN(C(=O)[C@H]2CC[C@H](NC(=O)[C@@H]3NC4(CCCCC4)[C@@]4(C(=O)Nc5cc(Cl)ccc54)[C@H]3c3cccc(Cl)c3F)CC2)CC1 (stereo partly drawn) [I-102, methyl 1-((1R,4r)-4-((3′R,4′S,5′R)-6″-chloro-4′-(3-chloro-2-fluorophenyl)-2″-oxodispiro[cyclohexane-1,2′-pyrrolidine-3′,3″-indoline]-5′-carboxamido)cyclohexane-1-carbonyl)-4-(1-(2,6-dioxopiperidin-3-yl)-3-methyl-2-oxo-2,3-dihydro-1H-benzo[d]imidazol-5-yl)piperidine-4-carboxylate]
5 | – | < 5 | Cn1c(=O)n(C2CCC(=O)NC2=O)c2ccc(C#CC3CCN(C(=O)[C@@H]4CC[C@@H](NC(=O)[C@@H]5NC6(CCC(C)(C)CC6)[C@@]6(C(=O)Nc7cc(Cl)ccc76)[C@H]5c5cccc(Cl)c5F)CO4)CC3)cc21 (stereo partly shown) [I-36]
6 | – | < 5 | COc1cc2c(cc1OC(C)C)[C@H](c1ccc(Cl)cc1)N(c1ccc(N(C)CC3CCN(CCCc4ccc5c(c4)n(C)c(=O)n5C4CCC(=O)NC4=O)C(=O)C3)cc1)C(=O)C2 (stereo partly shown) [I-68]
7 | < 10 | – | Cn1c(=O)n(C2CCC(=O)NC2=O)c2ccc(CCN3CCN(C[C@H]4CC[C@H](NC(=O)[C@@H]5NC6(CCCCC6)[C@@]6(C(=O)Nc7cc(Cl)ccc76)[C@H]5c5cccc(Cl)c5F)CC4)C(C(=O)O)C3)cc21 (stereo partly shown) [I-197]
8 | < 10 | – | Cn1c(=O)n(C2CCC(=O)NC2=O)c2ccc(C3CCN(CCC(=O)N4CCC(NC(=O)[C@@H]5NC6(CCCCC6)[C@@]6(C(=O)Nc7cc(Cl)ccc76)[C@H]5c5cccc(Cl)c5F)CC4)CC3)cc21 (stereo partly shown) [I-146]
9 | < 10 | – | CN(C(=O)[C@H]1CC[C@H](NC(=O)[C@@H]2NC3(CCCCC3)[C@@]3(C(=O)Nc4cc(Cl)ccc43)[C@H]2c2cccc(Cl)c2F)CC1)C1CCN(Cc2ccc3c(c2)n(C)c(=O)n3C2CCC(=O)NC2=O)CC1 (stereo partly shown) [I-127]
10 | 10 to 100 | – | Cn1c(=O)n(C2CCC(=O)NC2=O)c2ccc(C3CCN(C[C@H]4CC[C@H](NC(=O)[C@@H]5NC6(CCCCC6)[C@@]6(C(=O)Nc7cc(Cl)ccc76)[C@H]5c5cccc(Cl)c5F)CC4)C(C(=O)O)C3)cc21 (stereo partly shown) [I-168]
11 | – | 50 to 500 | Cn1c(=O)n(C2CCC(=O)NC2=O)c2ccc(C3(C(=O)O)CCN(C(=O)[C@H]4CC[C@H](NC(=O)[C@@H]5NC6(CCCCC6)C6(C(=O)Nc7cc(Cl)ccc76)[C@H]5c5cccc(Cl)c5F)CC4)CC3)cc21 (stereo partly drawn) [I-84, 1-((1R,4r)-4-((3′R,4′S,5′R)-6″-chloro-4′-(3-chloro-2-fluorophenyl)-2″-oxodispiro[cyclohexane-1,2′-pyrrolidine-3′,3″-indoline]-5′-carboxamido)cyclohexane-1-carbonyl)-4-(1-(2,6-dioxopiperidin-3-yl)-3-methyl-2-oxo-2,3-dihydro-1H-benzo[d]imidazol-5-yl)piperidine-4-carboxylic acid]
12 | 10 to 100 | – | Cn1c(=O)n(C2CCC(=O)NC2=O)c2ccc(CC3(CC(=O)O)CCN(C[C@H]4CC[C@H](NC(=O)[C@@H]5NC6(CCCCC6)[C@@]6(C(=O)Nc7cc(Cl)ccc76)[C@H]5c5cccc(Cl)c5F)CC4)CC3)cc21 (stereo partly shown) [I-210]
13 | > 1000 | – | O=C1CCN(c2ccc(CCCCN3CCN(C[C@H]4CC[C@H](NC(=O)[C@@H]5NC6(CCCCC6)[C@@]6(C(=O)Nc7cc(Cl)ccc76)[C@H]5c5cccc(Cl)c5F)CC4)CC3)cc2)C(=O)N1 [I-208]
14 | 100 to 1000 | – | Cn1c(=O)n(C2CCC(=O)NC2=O)c2ccc(CCCC3(CC(=O)O)CCN(C(=O)[C@H]4CC[C@H](NC(=O)[C@@H]5NC6(CCCCC6)[C@@]6(C(=O)Nc7cc(Cl)ccc76)[C@H]5c5cccc(Cl)c5F)CC4)CC3)cc21 (stereo partly shown) [I-132]
15 | < 10 | – | Cn1c(=O)n(C2CCC(=O)NC2=O)c2ccc(CCCN3CCN(C[C@H]4CC[C@H](NC(=O)[C@@H]5NC6(CCCCC6)[C@@]6(C(=O)Nc7cc(Cl)ccc76)[C@H]5c5cccc(Cl)c5F)CC4)C(C(=O)O)C3)cc21 (stereo partly shown) [I-202]
16 | < 10 | – | Cn1c(=O)n(C2CCC(=O)NC2=O)c2ccc(C3CCN(C(=O)CN4CCC(NC(=O)[C@@H]5NC6(CCC(C)(C)CC6)[C@@]6(C(=O)Nc7cc(Cl)ccc76)[C@H]5c5ccnc(Cl)c5F)CC4)CC3)cc21 (stereo partly shown) [I-160]
17 | < 10 | – | Cn1c(=O)n(C2CCC(=O)NC2=O)c2ccc([C@H]3CC[C@H](CN4CCC(NC(=O)[C@@H]5NC6(CCCCC6)[C@@]6(C(=O)Nc7cc(Cl)ccc76)[C@H]5c5cccc(Cl)c5F)CC4)CC3)cc21 (stereo partly shown) [I-130]
18 | < 10 | – | Cn1c(=O)n(C2CCC(=O)NC2=O)c2ccc([C@H]3CC[C@H](N4CCC(NC(=O)[C@@H]5NC6(CCCCC6)[C@@]6(C(=O)Nc7cc(Cl)ccc76)[C@H]5c5cccc(Cl)c5F)CC4)CC3)cc21 (stereo partly shown) [I-138]
19 | < 10 | – | Cn1c(=O)n(C2CCC(=O)NC2=O)c2ccc(CCCN3CCN(C[C@H]4CC[C@H](NC(=O)[C@@H]5NC6(CCCCC6)[C@@]6(C(=O)Nc7cc(Cl)ccc76)[C@H]5c5cccc(Cl)c5F)CC4)C[C@H]3C(=O)O)cc21 (stereo partly shown) [I-229]
20 | – | 50 to 500 | Cn1c(=O)n(C2CCC(=O)NC2=O)c2ccc(CCCS(=O)(=O)NC(=O)[C@H]3CC[C@H](NC(=O)[C@@H]4NC5(CCCCC5)[C@@]5(C(=O)Nc6cc(Cl)ccc65)[C@H]4c4cccc(Cl)c4F)CC3)cc21 (stereo partly shown) [I-100]
21 | < 10 | – | Cn1c(=O)n(C2CCC(=O)NC2=O)c2ccc(N3CCC(N4CCC(NC(=O)[C@@H]5NC6(CCCCC6)[C@@]6(C(=O)Nc7cc(Cl)ccc76)[C@H]5c5cccc(Cl)c5F)CC4)CC3)cc21 (stereo partly shown) [I-139]
22 | 10 to 100 | – | O=C1CCN(c2cnc3cc(N4CCN(CCN5CCC(NC(=O)[C@@H]6NC7(CCCCC7)[C@@]7(C(=O)Nc8cc(Cl)ccc87)[C@H]6c6cccc(Cl)c6F)CC5)CC4)ccn23)C(=O)N1 [I-169]
23 | 100 to 1000 | – | Cn1c(=O)n(C2CCC(=O)NC2=O)c2ccc(CC3(C(=O)O)CCN(C(=O)[C@H]4CC[C@H](NC(=O)[C@@H]5NC6(CCCCC6)[C@@]6(C(=O)Nc7cc(Cl)ccc76)[C@H]5c5cccc(Cl)c5F)CC4)CC3)cc21 (stereo partly shown) [I-131]
24 | 100 to 1000 | – | Cn1c(=O)n(C2CCC(=O)NC2=O)c2ccc(CCCO[C@@H]3C[C@H](C(=O)O)N(C(=O)[C@H]4CC[C@H](NC(=O)[C@@H]5NC6(CCCCC6)[C@@]6(C(=O)Nc7cc(Cl)ccc76)[C@H]5c5cccc(Cl)c5F)CC4)C3)cc21 (stereo partly shown) [I-141]
25 | < 10 | – | Cn1c(=O)n(C2CCC(=O)NC2=O)c2ccc(CCCN3CCN(C[C@H]4CC[C@H](NC(=O)[C@@H]5NC6(CCCCC6)[C@@]6(C(=O)Nc7cc(Cl)ccc76)[C@H]5c5cccc(Cl)c5F)CC4)[C@@H](C(=O)NS(C)(=O)=O)C3)cc21 (stereo partly shown) [I-222]
26 | 100 to 1000 | – | O=C1CCN(c2cnc3cc(C4CCN(C(=O)CN5CCC(NC(=O)[C@@H]6NC7(CCCCC7)[C@@]7(C(=O)Nc8cc(Cl)ccc87)[C@H]6c6cccc(Cl)c6F)CC5)CC4)ccn23)C(=O)N1 [I-164]

Reference: patent publication US20250034147A1, “MDM2 DEGRADERS AND USES THEREOF” (Kymera Therapeutics, Inc., priority 2021, published 2025)
